# From article PMC8197120, “Synthesis and Characterization of Some New Quinoxalin-2(1H)one and 2-Methyl-3H-quinazolin-4-one Derivatives Targeting the Onset and Progression of CRC with SAR, Molecular Docking, and ADMET Analyses” (Molecules, 2021)
# Where two headings read alike, the source gives them in different places.
# Columns and labels:
# [1] = test system: Bacteroides fragilis (ATCC 25285); test: Antibacterial activity, CFU viability; type: cell-based; conditions: ATCC25285, mean of two determinations, read-out: Mean IC50 ± SD
# Description: (§1) Pure standard microbial isolates collected from King Khaled University Hospital were tested in this study, including Enterococcus faecalis (ATCC 29122) as Gram positive bacteria and Escherichia coli (ATCC 25922) and Bacteroides fragilis (ATCC 25285) as Gram negative bacteria. Fresh cultures of each microorganism were grown on nutrient agar plates (Oxoid, UK), of which small inoculums were suspended in 5 mL nutrient broth for bacterial suspension preparation of 0.5MacFarland. Bacterial viability was investigated by estimating the colony-forming unit (CFU) ability of the bacteria incubated at different time intervals without or with appropriate amounts of the compound that were mixed with 2 × 10^7 CFU/mL in sterile BHI broths and were incubated under shaking for 60 min at 37 °C. Samples were serially diluted into sterile BHI broths, streaked onto media agar plates, and incubated for 24 h at 37 °C. The antibacterial potency of tested compounds was expressed as the residual number of CFU with reference to the initial inoculums. […] Ampicillin (1 mg/mL) was used as a positive standard reference.
# [2] = test system: Enterococcus faecalis (ATCC 29122); test: Antibacterial activity, CFU viability; type: cell-based; conditions: ATCC29122, mean of two determinations, read-out: Mean IC50 ± SD
# Description: as §1
# [3] = test system: Escherichia coli (ATCC 25922); test: Antibacterial activity, CFU viability; type: cell-based; conditions: ATCC25922, mean of two determinations, read-out: Mean IC50 ± SD
# Description: as §1
# [4] = molecular target: purified recombinant human LDHA protein (Homo sapiens, UniProt P00338); test: Lactate dehydrogenase-A (LDHA) inhibition assay, NADH consumption; type: biochemical; conditions: for inhibition at 100 µg/mL / inhibition at 200 µg/mL / IC50: LDHA; for inhibition at 100 µg/mL: read-out: Mean Inhibition % at 100 µg/ml ± SD; for inhibition at 200 µg/mL: read-out: Mean Inhibition % at 200 µg/ml ± SD; for fold by which (6e) is more potent than the labelled compound (LDHA inhibition efficiency): comparator 6e
# Description: LDHA inhibition activity was investigated by measuring the amounts of consumed NADH as described by Kim and his group. Briefly, different concentrations of each compound (50, 100, 200, and 300 µg) were incubated in buffer containing 20 mM of HEPES-K+ (pH 7.2), 20 μM of NADH, 2 mM of pyruvate, and 10 ng of purified recombinant human LDHA protein for 10 min. The fluorescence of NADH, which has an excitation wavelength of 340 nm and emission wavelength of 460 nm, was detected using a Spectrofluorometer.
# COX-2 = molecular target: T1, COX-2 (Homo sapiens, UniProt P35354); test: Cyclooxygenase (COX-2) inhibition assay (Cayman kit 701080); type: biochemical; conditions: for inhibition at 100 µg/mL: read-out: Mean Inhibition % at 100 µg/ml ± SD; for inhibition at 200 µg/mL: read-out: Mean Inhibition % at 200 µg/ml ± SD
# T1 construct: purchased Cayman Chemical Company 701080
# T1 sequence (P35354 18-604): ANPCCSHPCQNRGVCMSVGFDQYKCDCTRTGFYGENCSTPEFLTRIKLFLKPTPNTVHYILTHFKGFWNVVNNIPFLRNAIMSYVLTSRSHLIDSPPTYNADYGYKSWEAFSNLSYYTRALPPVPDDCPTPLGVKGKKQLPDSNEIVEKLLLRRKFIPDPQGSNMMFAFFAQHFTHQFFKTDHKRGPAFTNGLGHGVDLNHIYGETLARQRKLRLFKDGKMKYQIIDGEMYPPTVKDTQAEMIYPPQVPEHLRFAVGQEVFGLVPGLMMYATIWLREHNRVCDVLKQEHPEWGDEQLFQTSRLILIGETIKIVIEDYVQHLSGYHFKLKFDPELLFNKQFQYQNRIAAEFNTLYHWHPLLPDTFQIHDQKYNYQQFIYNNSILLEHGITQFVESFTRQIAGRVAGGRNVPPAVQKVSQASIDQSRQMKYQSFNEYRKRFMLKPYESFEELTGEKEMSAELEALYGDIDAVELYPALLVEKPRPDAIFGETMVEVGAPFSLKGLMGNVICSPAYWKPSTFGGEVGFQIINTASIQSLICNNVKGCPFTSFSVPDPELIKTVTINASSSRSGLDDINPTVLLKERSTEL
# Description: The compounds were resuspended in 100% DMSO at a final concentration of 10 mg/mL. […] The inhibitory activity was expressed as the inhibition percentage, which was determined by comparison with a control experiment. IC50 values were deduced from the curves.
# [5] = In vitro cytotoxicity assay (LDH release); type: cell-based, human; conditions: human
# Description: The best-in-class compounds, including (4c), (4d), (6a), (6b), (6d), (6e), and (6g), which were recognized as antimicrobial and enzymatic inhibitors, were further examined for their cytotoxic effects on LoVo and HCT-116 cells of human colon cancer. This was carried out by determining the residual percentages of viable cells after being treated with the compounds at different concentrations (50, 100, 200, and 400 µg/mL), using triton X-100 (at concentration of 0.1%) in the assay medium and the assay as the positive and negative controls, respectively.
# Samples were diluted in Dulbecco’s modified Eagles medium, consisting of 10% fetal bovine serum, added to cells grown and cultured for 24 h in a 5% CO2-humidified incubator at 37 °C. Then, the activity of lactate dehydrogenase released from damaged cells was determined in the collected supernatant aliquots using an ELISA end-point assay (Benchmark Plus, Bio-Rad, CA, USA). The 0.1% Triton X-100 in the assay medium and the assay medium only were used as positive and negative controls, respectively. Cell viability, expressed as a relative percentage of the OD values (at 550 nm) for compound-treated cells (final concentration of 200 µg) and the control, is shown as mean ± SD (n = 2).
# [6] = HCT-116 colon cancer cells, read-out: Mean % Cell Viability ± SD CRC-HCT-116 cells
# [7] = LoVo colon cancer cells, read-out: Mean % Cell Viability ± SD CRC-LoVo cells
Compound,IC50 [1] [µg/mL],IC50 [2] [µg/mL],IC50 [3] [µg/mL],inhibition at 100 µg/mL [4] [%],inhibition at 200 µg/mL [4] [%],inhibition at 100 µg/mL (COX-2) [%],inhibition at 200 µg/mL (COX-2) [%],IC50 [4] [µM],IC50 (COX-2) [µM],"viability at 24 h, 200 µg/mL [5, 6] [%]","viability at 24 h, 200 µg/mL [5, 7] [%]","viability at 24 h, 200 µg/ml [5, 6] [%]","viability at 24 h, 200 µg/ml [5, 7] [%]","IC50 at 24 h ([5]; HCT-116 human colon cancer cells, HCT-116 cells) [µg/mL]","IC50 at 24 h ([5]; LoVo human colon cancer cells, LoVo cells) [µg/mL]",fold by which (6e) is more potent than the labelled compound (LDHA inhibition efficiency) ([4]; 200 µg/mL) [fold],"fold decrease of LDHA inhibition efficiency relative to (6g) ([4]; 200 µg/mL, comparator 6g) [fold]"
"CC1(C)S[C@@H]2[C@H](NC(=O)[C@H](N)c3ccccc3)C(=O)N2[C@H]1C(=O)O [Ampicillin, ampicillin, reference compound]",16.1,12.8,20.2,,,,,,,,,,,,,,
O=c1[nH]c2ccccc2[nH]c1=O [Compound 1],19.4 ± 1.48,20.2 ± 1.06,25.9 ± 0.778,33.8 ± 2.55,68.2,30.9 ± 2.62,48.1,,,,,,,,,,
"COc1cc(C=NNc2nc3ccccc3[nH]c2=O)cc(I)c1O [Compound 4b, 3-[N’-(4-Hydroxy-3-iodo-5-methoxy-benzylidene)-hydrazino]-1H-quinoxalin-2-one]",40.6 ± 2.33,30.3 ± 2.4,13.6 ± 0.849,27.4 ± 2.4,35.4,12.3 ± 0.919,21.1,,,,,,,,,,
"COc1cc2nc(C)n(N=Cc3ccc(OCc4ccccc4)c(OC)c3)c(=O)c2cc1OC [Compound 6d, 3-[(4-Benzyloxy-3-methoxy-benzylidene)-amino]-6,7-dimethoxy-2-methyl-3H-quinazolin-4-one]",9 ± 0.99,15.2 ± 0.919,18.4 ± 1.27,31.2 ± 1.63,44.4 ± 3.39,50.2,97.5,,215,18.5,26.8,,,100,128,1.7,
"COc1ccc2cc(/C=N/n3c(C)nc4ccc(Cl)cc4c3=O)ccc2c1 [Compound 6c, 6-Chloro-3-oro-3-[(6-methoxy-naphthalen-2-ylmethylene)-amino]-2-methyl-3H-quinazolin-4-one]",30.1 ± 0.636,20.4 ± 1.2,26.9 ± 1.56,13.3 ± 0.919,23,23.8 ± 2.55,36.9 ± 1.63,,,,,,,,,3.3,
"COc1cc(C=NNc2nc3ccccc3[nH]c2=O)cc(Cl)c1O [Compound 4a, 3-[N’-(3-Chloro-4-hydroxy-5-methoxy-benzylidene)-hydrazino]-1H-quinoxalin-2-one]",13.3 ± 0.849,27 ± 2.83,15 ± 0.566,20.3 ± 1.63,28.2,4.65 ± 0.495,12.1,,,,,,,,,,
Cc1nc2ccc(Cl)cc2c(=O)n1N [Compound 5b],37 ± 2.83,27.5 ± 2.12,13.6 ± 1.48,11.8 ± 1.06,21.2,5.7 ± 0.99,9.05,,,,,,,,,3.6,
"NN=c1[nH]c2ccccc2[nH]c1=O [Compound 2, 3-hydrazineylidene-3,4-dihydro quinoxalin-2(1H)-one]",14.5 ± 0.99,13.6 ± 0.566,13.7 ± 1.34,26.7 ± 1.84,47.1,7.55 ± 0.778,15.4 ± 2.19,,,,,,,,,,
"CCc1ccc(/C=N/n2c(C)nc3ccc(Cl)cc3c2=O)s1 [Compound 6f, 6-Chloro-3-oro-3-[(5-ethyl-thiophen-2-ylmethylene)-amino]-2-methyl-3H-quinazolin-4-one]",27.9 ± 1.56,22.6 ± 0.636,33.4 ± 3.39,27.1 ± 1.48,40,10 ± 1.41,20.7,,,,,,,,,1.9,2.2

# Second part, led by results:
IC50 [1] [µg/mL],IC50 [2] [µg/mL],IC50 [3] [µg/mL],inhibition at 100 µg/mL [4] [%],inhibition at 200 µg/mL [4] [%],inhibition at 100 µg/mL (COX-2) [%],inhibition at 200 µg/mL (COX-2) [%],IC50 [4] [µM],IC50 (COX-2) [µM],Compound,"viability at 24 h, 200 µg/mL [5, 6] [%]","viability at 24 h, 200 µg/mL [5, 7] [%]","viability at 24 h, 200 µg/ml [5, 6] [%]","viability at 24 h, 200 µg/ml [5, 7] [%]","IC50 at 24 h ([5]; HCT-116 human colon cancer cells, HCT-116 cells) [µg/mL]","IC50 at 24 h ([5]; LoVo human colon cancer cells, LoVo cells) [µg/mL]",fold by which (6e) is more potent than the labelled compound (LDHA inhibition efficiency) ([4]; 200 µg/mL) [fold],"fold decrease of LDHA inhibition efficiency relative to (6g) ([4]; 200 µg/mL, comparator 6g) [fold]"
27.1 ± 1.84,18.2 ± 0.99,31.4 ± 1.48,21.1 ± 2.19,31.2,30.3 ± 1.84,54,,,"COc1ccc2cc(C=NNc3nc4ccccc4[nH]c3=O)ccc2c1 [Compound 4e, 3-[N’-(6-Methoxy-naphthalen-2-ylmethylene)-hydrazino]-1H-quinoxalin-2-one]",,,,,,,,
8.05 ± 0.778,9.6,12.7 ± 0.778,40.6 ± 2.33,64.2,36.5 ± 3.46,61.1,,,"COc1cc(C=NNc2nc3ccccc3[nH]c2=O)cc([N+](=O)[O-])c1O [Compound 4c, 3-[N’-(4-Hydroxy-3-methoxy-5-nitro-benzylidene)-hydrazino]-1H-quinoxalin-2-one]",77.3 ± 3.25,72.2 ± 4.45,,,,,,
28.2 ± 1.77,10.8,30.6 ± 2.62,47.4 ± 3.96,85,14.4 ± 0.778,28.9,362,,"O=C(O)c1ccc(/C=N/Nc2nc3ccccc3[nH]c2=O)cc1 [Compound 4d, 4-[(3-Oxo-3,4-dihydro-quinoxalin-2-yl)-hydrazonomethyl]-benzoic acid]",,,65.5 ± 3.54,60 ± 4.24,,,,
10.9 ± 0.566,13.8 ± 0.495,7.9 ± 0.849,62.5,89.7,42.9 ± 2.97,83,248,293,"COc1cc2nc(C)n(N=Cc3cc(OC)c(O)c([N+](=O)[O-])c3)c(=O)c2cc1OC [Compound 6a, 3-[(4-Hydroxy-3-methoxy-5-nitro-benzylidene)-amino]-6,7-dimethoxy-2-methyl-3H-quinazolin-4-one]",91.2 ± 3.11,92.2 ± 2.62,,,,,,
12.8 ± 0.919,12.4,15.7 ± 0.919,44.8 ± 2.9,76.8,57.9,100,,222,"COc1cc(C=Nn2c(C)nc3ccc(Cl)cc3c2=O)ccc1OCc1ccccc1 [Compound 6e, 3-[(4-Benzyloxy-3-methoxy-benzylidene)-amino]-6-chloro-2-methyl-3H-quinazolin-4-one]",89 ± 2.83,93.4 ± 4.81,,,,,,
